Results on seven compounds are retold here after paper PMC7570844, “Skin Damages—Structure Activity Relationship of Benzimidazole Derivatives Bearing a 5-Membered Ring System” (Molecules, 2020).

Series [1] deals with herpes simplex virus-1 (KOS). Briefly: Antiviral activity in HEL cell cultures (CPE, MTS). In kind it is cell-based. As to conditions: Human alphaherpesvirus 1, HEL cells.
Series [2] has as its system herpes simplex virus-2 (G). Nature of the series: Antiviral activity in HEL cell cultures (CPE, MTS). The conditions noted are these: Human alphaherpesvirus 2; Herpes simplex virus-2, HEL cells. In kind it is cell-based.
Series [3] concerns herpes simplex virus-1 TK-KOS ACVr. Briefly: microbe, parasite or virus in culture. In kind it is cell-based. As to conditions: Human alphaherpesvirus 1, HEL, read-out: Antiviral EC50.
For another series, the system named is vaccinia virus. Nature of the series: microbe, parasite or virus in culture. Format: cell-based. As to conditions: Orthopoxvirus vaccinia, HEL, read-out: Antiviral EC50.
In series [4] the test system is human embryonic lung (HEL) cell cultures.
A further series relates to Adeno virus-2. Briefly: Antiviral activity in HEL cell cultures (CPE, MTS). Format: cell-based. The conditions noted are these: Adeno virus-2, HEL cells.
Series [5] in a line: UV filtering parameters of cosmetic formulation on PMMA plates (modified Diffey-Robson). In kind it is physicochemical.
Another series deals with Microsporum gypseum. Nature of the series: Antidermatophyte plaque growth inhibition. In kind it is cell-based. As to conditions: Nannizzia gypsea, read-out: Percent growth inhibition.
The subject of a further series is Microsporum canis. Nature of the series: Antidermatophyte plaque growth inhibition. In kind it is cell-based. The conditions noted are these: read-out: Percent growth inhibition.
Series [6] deals with Trichophyton mentagrophytes. Briefly: Antidermatophyte plaque growth inhibition. As to conditions: read-out: Percent growth inhibition. Format: cell-based.
For the next series, the system named is Trichophyton tonsurans. Briefly: Antidermatophyte plaque growth inhibition. Format: cell-based. The conditions noted are these: read-out: Percent growth inhibition.
A further series relates to Epidermophyton floccosum. Briefly: Antidermatophyte plaque growth inhibition. In kind it is cell-based. The conditions noted are these: read-out: Percent growth inhibition.
Series [7] deals with M. gypseum, M. canis, T. mentagrophytes, T. tonsurans and E. floccosum. Nature of the series: Antidermatophyte activity, all five dermatophytes taken together. As to conditions: 100 µg/mL. In kind it is cell-based.
The nature of series [8]: DPPH radical scavenging test. The conditions noted are these: mean ± SEM.
Series [9] in a line: Ferric reducing antioxidant power (FRAP) test. As to conditions: mean ± SEM.
Series [10] is described as follows: UV filtering parameters of compounds in solution (MeOH, 290-400 nm).
Series [11] has as its system vesicular stomatitis virus. Nature of the series: microbe, parasite or virus in culture. The conditions noted are these: HeLa, read-out: Antiviral EC50. Format: cell-based.
For a further series, the system named is Coxsackie virus B4. Briefly: Antiviral activity in HeLa cell cultures (CPE, MTS). In kind it is cell-based. The conditions noted are these: Enterovirus B; Coxsackie virus B4, HeLa cells.
Series [12] has as its system Respiratory syncytial virus. Briefly: microbe, parasite or virus in culture. In kind it is cell-based. The conditions noted are these: human respiratory syncytial virus, HeLa cells, read-out: Antiviral EC50.

Each structure is given as a SMILES string. Bounds are passed on as bounds.

Consider `Nc1nc(O)c2ncn(COC(CO)CO)c2n1` [Ganciclovir, reference compound], for which the concentration giving a half-maximal response (EC50) – broadly, the concentration needed to bring the measured effect to its halfway point – in series [1] is 0.01 µM; in series [2], 0.01 µM; in series [3] it was 0.2 µM; with vaccinia virus it was over 100 µM. Moreover, the Cytotoxic concentration in series [4] is over 250 µM.

On to `Nc1ccn(C[C@@H](CO)OCP(=O)(O)O)c(=O)n1` [Cidofovir, reference compound], for which the EC50 stood at 4.5 µM in [1]; 3.4 µM in [2]; 2.8 µM in [3]; 50 µM with vaccinia virus; 10 µM in the series with Adeno virus-2. Also, the Cytotoxic concentration in [4] is listed as over 250 µM.

Regarding `O=c1[nH]c(=O)n([C@H]2C[C@H](O)[C@@H](CO)O2)cc1/C=C/Br` [Birivudin, Brivudin, reference compound], the results for the EC50 (in series [1]; in series [3]; in the series on vaccinia virus) were 0.01 µM, 0.1 µM and 5.8 µM, respectively. For the same compound, the Cytotoxic concentration in series [4] is given as over 250 µM.

In the case of `Nc1nc2c(ncn2COCCO)c(=O)[nH]1` [Acyclovir, reference compound], the EC50 in [1] is 0.6 µM; in series [2] it was 0.6 µM; in series [3], 2 µM; with vaccinia virus, over 250 µM. Besides, the Cytotoxic concentration in [4] was over 250 µM.

As to `O=S(=O)(O)c1ccc2[nH]c(-c3ccccc3)nc2c1` [PBSA, 2-phenyl-1H-benzimidazole-5-sulphonic acid, reference compound], the SPF in [5] (1% in formulation) is given as 3.22; in series [5] (2% in formulation), 4.63; in series [5] (3% in formulation), 5.09; in [10], 3.40±0.17. The UVA/UVB in [5] (1% in formulation) was 0.33; in series [5] (2% in formulation) it was 0.22; in series [5] (3% in formulation) it was 0.25; in [10] it was 0.29. For the same compound, the UVAPF was found to be 0.94 in [5] (1% in formulation), 0.94 in series [5] (2% in formulation), 1.02 in series [5] (3% in formulation) and 1.03±0.08 in series [10]. Also, the results for the λc in series [5] (1% in formulation), in series [5] (2% in formulation) and in series [5] (3% in formulation) were 319 nm, 321 nm and 324 nm, respectively. The inhibition (in general, the drop in the measured response relative to a control, in per cent) at 100 µg/mL in the series on Microsporum gypseum is 9.62 ± 0.61%; in the series on Microsporum canis, under 0%; in series [6] it was under 0%; with Trichophyton tonsurans it was under 0%; in the series on Epidermophyton floccosum it was 7.41 ± 0.43%. Moreover, the “Activity on dermatophytes (in words)” value in series [7] is “no activity on dermatophytes”. For the same compound, the “DPPH (% Inhibition)” value in [8] (tested at 1 mg/mL) is reported as “<LOQ *”. In [9], the FRAP result is reported as “<LOQ *”. Also, in series [10], the “λc (critical wavelength)” value is reported as 322 nm.

As for `O=C(O)/C=C/c1ccc(O)c(O)c1` [Caffeic acid, reference compound], the “DPPH (% Inhibition)” value in series [8] (tested concentration 0.0105 mg/mL) is on record as 81.35 ± 0.35%. Further, in series [9], the FRAP turned out to be 10156.12 ± 15.5 µmolTE/g.

`NC(=O)c1ncn([C@@H]2O[C@H](CO)[C@@H](O)[C@H]2O)n1` [Ribaravin, ribavirin, reference compound]: the EC50 came out at 112 µM in [11], 250 µM in the series on Coxsackie virus B4 and 10 µM in [12].
